Assay results: the supplement of paper PMC11061612

Assays:
[1] = system: TE-10 (Esophageal Squamous Cell Carcinoma); assay: Bliss excess, mean over the matrix (fraction); higher = more synergy
Procedure, shortened: (§1)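 Cell lines grown in DMEM/F12 or RPMI with 10% FBS were plated in 1536-well plates and held 24 hours at 37°C, 5% CO2 before 72 hours of exposure to two-drug dose matrices, with DMSO typically at 0.2%. CellTiter-Glo 2.0 luminescence gave viability, which was converted to inhibition. Vehicle wells were set to 0 and blank wells to 1. Combination Emax is the second-highest inhibition in the matrix, and Bliss excess is the observed combination effect minus the expected EA + EB − EA·EB, where EA and EB are the single-agent effects.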

[2] = system: A204 (Rhabdomyosarcoma); assay: combination Emax (second highest fraction inhibited in the dose matrix, 72 h); higher = more inhibition; extreme values may be limits of the assay
Procedure, shortened: as §1

[3] = system: 769-P (Kidney Carcinoma); assay: as above
Procedure, shortened: as §1

[4] = system: EB2 (Burkitt's Lymphoma); assay: as above
Procedure, shortened: as §1

[5] = system: KYSE-220 (Esophageal Squamous Cell Carcinoma); assay: as above
Procedure, shortened: as §1

[6] = system: A101D (Melanoma); assay: as above
Procedure, shortened: as §1

[7] = system: GA-10 (Burkitt's Lymphoma); assay: as above
Procedure, shortened: as §1

[8] = system: TE-10 (Esophageal Squamous Cell Carcinoma); assay: as above
Procedure, shortened: as §1

[9] = system: DU-4475 (Breast Carcinoma); assay: as above
Procedure, shortened: as §1

[10] = system: NCI-H441 (Lung Adenocarcinoma); assay: as above
Procedure, shortened: as §1

[11] = system: COLO-792 (Melanoma); assay: as above
Procedure, shortened: as §1

[12] = system: HCC1395 (Breast Carcinoma); assay: as above
Procedure, shortened: as §1

[13] = system: NCI-H841 (Small Cell Lung Carcinoma); assay: Bliss excess, mean over the matrix (fraction); higher = more synergy
Procedure, shortened: as §1

[14] = system: MKN1 (Gastric Carcinoma); assay: as above
Procedure, shortened: as §1

[15] = system: NCI-H841 (Small Cell Lung Carcinoma); assay: combination Emax (second highest fraction inhibited in the dose matrix, 72 h); higher = more inhibition; extreme values may be limits of the assay
Procedure, shortened: as §1

[16] = system: MKN1 (Gastric Carcinoma); assay: as above
Procedure, shortened: as §1
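Wherever Bliss excess, mean over the matrix is given: after 72 h of two-drug dosing.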

Structure (SMILES)	Bliss excess [1]	combination Emax [2]	combination Emax [3]	combination Emax [4]	combination Emax [5]	combination Emax [6]	combination Emax [7]	combination Emax [8]	combination Emax [9]	combination Emax [10]	combination Emax [11]	combination Emax [12]	Bliss excess [13]	Bliss excess [14]	combination Emax [15]	combination Emax [16]
CN(C)CCCOc1ccc(-c2ccc3ncc4c(c3c2)n(C2CCOCC2)c(=O)n4C)cn1 [AZD0156] + C=CCn1c(=O)c2cnc(Nc3ccc(N4CCN(C)CC4)cc3)nc2n1-c1cccc(C(C)(C)O)n1 [AZD1775] (first compound max 1 µM, partner max 1 µM)	-0.033	0.27	0.766	0.841	0.812	0.495	0.988	0.808	0.924	0.329	0.538	0.682				
CN(C)CCCOc1ccc(-c2ccc3ncc4c(c3c2)n(C2CCOCC2)c(=O)n4C)cn1 [AZD0156] + CCN(CCO)CCCOc1ccc2c(Nc3cc(CC(=O)Nc4cccc(F)c4)[nH]n3)ncnc2c1 [AZD2811] (first compound max 1 µM, 7x7, partner max 1 µM)	0.0126	0.297	0.0806	0.416	0.142	0.203	0.808	0.332	0.392	0.112	0.358	0.193				
CN(C)CCCOc1ccc(-c2ccc3ncc4c(c3c2)n(C2CCOCC2)c(=O)n4C)cn1 [AZD0156] + C[C@@H]1COCCN1C2=NC(=NC(=C2)C3(CC3)[S@](=N)(=O)C)C4=C5C=CNC5=NC=C4 [AZD6738] (first compound max 1 µM, 7x7, partner max 10 µM)	-0.0075	0.411	0.84	0.774	0.876	0.703	1	0.814	0.913	0.435	0.273	0.8				
C=CCn1c(=O)c2cnc(Nc3ccc(N4CCN(C)CC4)cc3)nc2n1-c1cccc(C(C)(C)O)n1 [AZD1775] + C[C@@H]1COCCN1C2=NC(=NC(=C2)C3(CC3)[S@](=N)(=O)C)C4=C5C=CNC5=NC=C4 [AZD6738] (first compound max 1 µM, partner max 10 µM)	-0.0029	0.369	0.847	0.88	0.941	0.749	1	0.901	1	0.536	0.474	0.896				
C=CCn1c(=O)c2cnc(Nc3ccc(N4CCN(C)CC4)cc3)nc2n1-c1cccc(C(C)(C)O)n1 [AZD1775] + O=C(c1cc(Cc2n[nH]c(=O)c3ccccc23)ccc1F)N1CCN(C(=O)C2CC2)CC1 [Olaparib] (first compound max 1 µM, partner max 10 µM)	-0.0196	0.24	0.716	0.848	0.857	0.604	0.981	0.858	0.933	0.472	0.284	0.719				
CCN(CCO)CCCOc1ccc2c(Nc3cc(CC(=O)Nc4cccc(F)c4)[nH]n3)ncnc2c1 [AZD2811] + C=CCn1c(=O)c2cnc(Nc3ccc(N4CCN(C)CC4)cc3)nc2n1-c1cccc(C(C)(C)O)n1 [AZD1775] (first compound max 1 µM, partner max 1 µM)	0.0176	0.27	0.632	0.77	0.804	0.427	0.992	0.737	0.948	0.343	0.396	0.682				
CCN(CCO)CCCOc1ccc2c(Nc3cc(CC(=O)Nc4cccc(F)c4)[nH]n3)ncnc2c1 [AZD2811] + C[C@@H]1COCCN1C2=NC(=NC(=C2)C3(CC3)[S@](=N)(=O)C)C4=C5C=CNC5=NC=C4 [AZD6738] (first compound max 1 µM, 7x7, partner max 10 µM)	-0.0869	0.387	0.85	0.746	0.884	0.682	0.978	0.794	0.944	0.407	0.418	0.785				
CCN(CCO)CCCOc1ccc2c(Nc3cc(CC(=O)Nc4cccc(F)c4)[nH]n3)ncnc2c1 [AZD2811] + O=C(c1cc(Cc2n[nH]c(=O)c3ccccc23)ccc1F)N1CCN(C(=O)C2CC2)CC1 [Olaparib] (first compound max 1 µM, 7x7, partner max 10 µM)	0.0515	0.387	0.144	0.373	0.214	0.261	0.595	0.4	0.576	0.227	0.374	0.328				
CN(CCO)CC[C@H](CSc1ccccc1)Nc1ccc(S(=O)(=O)NC(=O)c2ccc(N3CCC([C@@H](O)c4ccccc4-c4ccc(Cl)cc4)CC3)cc2)cc1S(=O)(=O)C(F)(F)F [AZD4320] + CN(C)CCCOc1ccc(-c2ccc3ncc4c(c3c2)n(C2CCOCC2)c(=O)n4C)cn1 [AZD0156] (first compound max 1 µM, 7x7, partner max 1 µM)	-0.0208	0.223	0.719	0.253	0.14	0.413	0.303	0.281	0.871	0.286	0.856	0.202				
Cc1c2c(nn1C)CSCc1cc(n(C)n1)CSc1cc(c3ccccc3c1)OCCCc1c(C(=O)O)n(C)c3c-2c(Cl)ccc13 [AZD5991] + C1CN(CCC1(C(=O)N[C@@H](CCO)C2=CC=C(C=C2)Cl)N)C3=NC=NC4=C3C=CN4 [Capivasertib] (first compound max 1 µM, 7x7, partner max 3 µM)	0.0484	0.689	0.146	0.479	0.252	1	0.858	0.901	0.24	0.237	0.988	0.911				
CC(=O)c1c(C)c2cnc(Nc3ccc(N4CCNCC4)cn3)nc2n(C2CCCC2)c1=O [Palbociclib] + Cc1c2c(nn1C)CSCc1cc(n(C)n1)CSc1cc(c3ccccc3c1)OCCCc1c(C(=O)O)n(C)c3c-2c(Cl)ccc13 [AZD5991] (first compound max 10 µM, 7x7, partner max 1 µM)		0.37	0.786	0.518	0.305	0.588	0.975		0.231	0.302	0.836	0.419	-0.0265	-0.0238	0.289	0.313
CC(=O)c1c(C)c2cnc(Nc3ccc(N4CCNCC4)cn3)nc2n(C2CCCC2)c1=O [Palbociclib] + Cn1cnc2c(F)c(Nc3ccc(Br)cc3Cl)c(C(=O)NOCCO)cc21 [Selumetinib] (first compound max 10 µM, 7x7, partner max 10 µM)		0.399	0.809	0.492	0.66	0.588	0.941		1	0.327	0.5	0.0651	-0.0352	-0.0001	0.16	0.332
CCc1c2c(nc3ccc(O)cc13)-c1cc3c(c(=O)n1C2)COC(=O)[C@]3(O)CC [SN-38] + O=C(c1cc(Cc2n[nH]c(=O)c3ccccc23)ccc1F)N1CCN(C(=O)C2CC2)CC1 [Olaparib] (first compound max 0.3 µM, 7x7, partner max 10 µM)	0.0939		0.734	0.932	0.99	0.757		0.752	0.942	0.709	0.484	0.518				
Cn1cnc2c(F)c(Nc3ccc(Br)cc3Cl)c(C(=O)NOCCO)cc21 [Selumetinib] + C=CCn1c(=O)c2cnc(Nc3ccc(N4CCN(C)CC4)cc3)nc2n1-c1cccc(C(C)(C)O)n1 [AZD1775] (first compound max 10 µM, partner max 1 µM)		0.276	0.904	0.785	0.664	0.64	1		1	0.41	0.694	0.425	-0.0536	-0.0326	0.217	0.782
Cn1cnc2c(F)c(Nc3ccc(Br)cc3Cl)c(C(=O)NOCCO)cc21 [Selumetinib] + CC(C)n1c(=O)n(C)c2cnc3cc(F)c(-c4ccc(OCCCN5CCCCC5)nc4)cc3c21 [AZD1390] (first compound max 10 µM, 7x7, partner max 0.3 µM)		0.149	0.294	0.0739	0.405	0.528	0.165		1	0.221	0.498	0.192	-0.0529	-0.0173	0.0728	0.182
Cn1cnc2c(F)c(Nc3ccc(Br)cc3Cl)c(C(=O)NOCCO)cc21 [Selumetinib] + CCN(CCO)CCCOc1ccc2c(Nc3cc(CC(=O)Nc4cccc(F)c4)[nH]n3)ncnc2c1 [AZD2811] (first compound max 10 µM, 7x7, partner max 1 µM)		0.286	0.356	0.182	0.52	0.596	0.7		1	0.304	0.51	0.212	-0.0341	0.002	0.332	0.538
Cn1cnc2c(F)c(Nc3ccc(Br)cc3Cl)c(C(=O)NOCCO)cc21 [Selumetinib] + C[C@@H]1COCCN1C2=NC(=NC(=C2)C3(CC3)[S@](=N)(=O)C)C4=C5C=CNC5=NC=C4 [AZD6738] (first compound max 10 µM, 7x7, partner max 10 µM)		0.388	0.888	0.755	0.753	0.76	0.977		1	0.36	0.589	0.571	-0.0212	0.0183	0.389	0.782
